Data from patent publication US7141570B2, “N-aryl-2-oxazolidinone-5-carboxamides and their derivatives” (Pharmacia & Upjohn Company, priority 2002, dated 2006).
Values after ≈ are worked out from the molar mass of the structure shown.

Tests used:
Assay in all cases: MIC, agar dilution
Type in all cases: cell-based
[1] = tested on: S. epidermidis (SEPI 30593); conditions: Staphylococcus epidermidis, S. epidermidis 30593, overnight at 35° C.
Description: (§1) The in vitro MICs of test compounds were determined by a standard agar dilution method. A stock drug solution of each analog was prepared in the preferred solvent, usually DMSO:H2O (1:3). Serial 2-fold dilutions of each sample are made using 1.0 ml aliquots of sterile distilled water. To each 1.0 ml aliquot of drug was added 9 ml of molten Mueller Hinton agar medium. The drug-supplemented agar was mixed, poured into 15×100 mm petri dishes, and allowed to solidify and dry prior to inoculation.
(§2) Vials of each of the test organisms are maintained frozen in the vapor phase of a liquid nitrogen freezer. Test cultures are grown overnight at 35° C. on the medium appropriate for the organism. Colonies are harvested with a sterile swab, and cell suspensions are prepared in Trypticase Soy broth (TSB) to equal the turbidity of a 0.5 McFarland standard. A 1:20 dilution of each suspension was made in TSB. The plates containing the drug supplemented agar are inoculated with a 0.001 ml drop of the cell suspension using a Steers replicator, yielding approximately 10^4 to 10^5 cells per spot. The plates are incubated overnight at 35° C.
(§3) Following incubation the Minimum Inhibitory Concentration (MIC μg/ml), the lowest concentration of drug that inhibits visible growth of the organism, was read and recorded.

E. Faecalis (EFAE 9217) = conditions: Enterococcus faecalis, E. Faecalis 9217, overnight at 35° C.
Description: as §1, §2, §3

S. aureus (SAUR 9213) = conditions: Staphylococcus aureus, S. aureus 9213, overnight at 35° C.
Description: as §1, §2, §3

S. aureus (SAUR 31583) = conditions: Staphylococcus aureus, S. aureus 31583, overnight at 35° C.
Description: as §1, §2, §3

S. pneumonia (SPNE 9912) = conditions: S. pneumonia 9912, overnight at 35° C.
Description: as §1, §2, §3

E. Faecium (EFAE 12712) = conditions: Enterococcus faecium, E. Faecium 12712, overnight at 35° C.
Description: as §1, §2, §3

[2] = tested on: M. catarrhalis (MCAT 30607); conditions: Moraxella catarrhalis, M. catarrhalis 30607, overnight at 35° C.
Description: as §1, §2, §3

[3] = tested on: H. influenzae (HINF 30063); conditions: Haemophilus influenzae, H. influenzae 30063, overnight at 35° C.
Description: as §1, §2, §3

S. pyogenes (SPYO 152) = conditions: Streptococcus pyogenes, S. pyogenes 152, overnight at 35° C.
Description: as §1, §2, §3

[4] = tested on: H. influenzae (HINF 31810); conditions: Haemophilus influenzae, H. influenzae 31810, overnight at 35° C.
Description: as §1, §2, §3

SMILES | MIC [1] | MIC (E. Faecalis (EFAE 9217)) | MIC (S. aureus (SAUR 9213)) | MIC (S. aureus (SAUR 31583)) | MIC (S. pneumonia (SPNE 9912)) | MIC (E. Faecium (EFAE 12712)) | MIC [2] | MIC [3] | MIC (S. pyogenes (SPYO 152)) | MIC [4]
CC(=O)NC[C@H]1CN(c2ccc(N3CCN(C(=O)COc4ccc(CN5CCOCC5)cc4)CC3)c(F)c2)C(=O)O1 [Compound 19] | 8 µg/mL (≈ 14 µM) | 4 µg/mL (≈ 7.02 µM) | 16 µg/mL (≈ 28.1 µM) | > 64 µg/mL | 1 µg/mL (≈ 1.76 µM) | 8 µg/mL (≈ 14 µM) | 64 µg/mL (≈ 112 µM) | > 64 µg/mL | 1 µg/mL (≈ 1.76 µM) | 64 µg/mL (≈ 112 µM)
CCC(=S)NC[C@H]1CN(c2ccc(N3CCN(C(=O)COc4ccc(CN5CCOCC5)cc4)CC3)c(F)c2)C(=O)O1 [Compound 17] | 2 µg/mL (≈ 3.33 µM) | 1 µg/mL (≈ 1.67 µM) | 8 µg/mL (≈ 13.3 µM) | 32 µg/mL (≈ 53.4 µM) | 0.25 µg/mL (≈ 0.417 µM) | 2 µg/mL (≈ 3.33 µM) | 4 µg/mL (≈ 6.67 µM) | 64 µg/mL (≈ 107 µM) | 0.5 µg/mL (≈ 0.834 µM) | 32 µg/mL (≈ 53.4 µM)
CCN(CC)Cc1ccc(OCC(=O)N2CCN(c3ccc(N4C[C@H](CNC(=S)C5CC5)OC4=O)cc3F)CC2)cc1 [Compound 10] | 1 µg/mL (≈ 1.67 µM) | 2 µg/mL (≈ 3.35 µM) | 2 µg/mL (≈ 3.35 µM) | 8 µg/mL (≈ 13.4 µM) | 0.25 µg/mL (≈ 0.418 µM) | 2 µg/mL (≈ 3.35 µM) | 2 µg/mL (≈ 3.35 µM) | 32 µg/mL (≈ 53.5 µM) | 0.25 µg/mL (≈ 0.418 µM) | 32 µg/mL (≈ 53.5 µM)
O=C(COc1ccc(CN2CCOCC2)cc1)N1CCN(c2ccc(N3C[C@H](CNC(=S)C4CC4)OC3=O)cc2F)CC1 [Compound 18] | 1 µg/mL (≈ 1.63 µM) | 1 µg/mL (≈ 1.63 µM) | 4 µg/mL (≈ 6.54 µM) | 16 µg/mL (≈ 26.2 µM) | 0.25 µg/mL (≈ 0.409 µM) | 2 µg/mL (≈ 3.27 µM) | 2 µg/mL (≈ 3.27 µM) | 64 µg/mL (≈ 105 µM) | 0.25 µg/mL (≈ 0.409 µM) | 32 µg/mL (≈ 52.3 µM)
CCC(=S)NC[C@H]1CN(c2ccc(N3CCN(C(=O)COc4ccc(CN(C)C)cc4)CC3)c(F)c2)C(=O)O1 [Compound 13] | 1 µg/mL (≈ 1.79 µM) | 1 µg/mL (≈ 1.79 µM) | 8 µg/mL (≈ 14.3 µM) | 16 µg/mL (≈ 28.7 µM) | 0.125 µg/mL (≈ 0.224 µM) | 2 µg/mL (≈ 3.59 µM) | 4 µg/mL (≈ 7.17 µM) | 16 µg/mL (≈ 28.7 µM) | 0.25 µg/mL (≈ 0.448 µM) | 16 µg/mL (≈ 28.7 µM)
CCC(=S)NC[C@H]1CN(c2ccc(N3CCN(C(=O)COc4ccc(CN(CC)CC)cc4)CC3)c(F)c2)C(=O)O1 [Compound 9] | 2 µg/mL (≈ 3.41 µM) | 2 µg/mL (≈ 3.41 µM) | 4 µg/mL (≈ 6.83 µM) | 32 µg/mL (≈ 54.6 µM) | 0.25 µg/mL (≈ 0.427 µM) | 2 µg/mL (≈ 3.41 µM) | 4 µg/mL (≈ 6.83 µM) | 32 µg/mL (≈ 54.6 µM) | 0.25 µg/mL (≈ 0.427 µM) | 32 µg/mL (≈ 54.6 µM)
CC(=O)NC[C@H]1CN(c2ccc(N3CCN(C(=O)COc4ccc(CN(C)C)cc4)CC3)c(F)c2)C(=O)O1 [Compound 14] | 8 µg/mL (≈ 15.2 µM) | 8 µg/mL (≈ 15.2 µM) | 16 µg/mL (≈ 30.3 µM) | > 64 µg/mL | 0.5 µg/mL (≈ 0.948 µM) | 8 µg/mL (≈ 15.2 µM) | 32 µg/mL (≈ 60.7 µM) | 64 µg/mL (≈ 121 µM) | 0.5 µg/mL (≈ 0.948 µM) | 32 µg/mL (≈ 60.7 µM)
CN(C)Cc1ccc(OCC(=O)N2CCN(c3ccc(N4C[C@H](CNC(=S)C5CC5)OC4=O)cc3F)CC2)cc1 [Compound 2] | 1 µg/mL (≈ 1.76 µM) | 1 µg/mL (≈ 1.76 µM) | 2 µg/mL (≈ 3.51 µM) | 4 µg/mL (≈ 7.02 µM) | 0.125 µg/mL (≈ 0.219 µM) | 1 µg/mL (≈ 1.76 µM) | 2 µg/mL (≈ 3.51 µM) | 16 µg/mL (≈ 28.1 µM) | 0.125 µg/mL (≈ 0.219 µM) | 8 µg/mL (≈ 14 µM)
CC(=O)NC[C@H]1CN(c2ccc(N3CCN(C(=O)COc4ccc(CN5CCN(C)CC5)cc4)CC3)c(F)c2)C(=O)O1 [Compound 24] | 2 µg/mL (≈ 3.43 µM) | – | 4 µg/mL (≈ 6.86 µM) | 16 µg/mL (≈ 27.5 µM) | 0.125 µg/mL (≈ 0.215 µM) | 2 µg/mL (≈ 3.43 µM) | 2 µg/mL (≈ 3.43 µM) | 32 µg/mL (≈ 54.9 µM) | 0.25 µg/mL (≈ 0.429 µM) | 16 µg/mL (≈ 27.5 µM)
CCC(=S)NC[C@H]1CN(c2ccc(N3CCN(C(=O)COc4ccc(CN5CCN(C)CC5)cc4)CC3)c(F)c2)C(=O)O1 [Compound 22] | 2 µg/mL (≈ 3.26 µM) | – | 8 µg/mL (≈ 13.1 µM) | 32 µg/mL (≈ 52.2 µM) | 0.125 µg/mL (≈ 0.204 µM) | 2 µg/mL (≈ 3.26 µM) | 2 µg/mL (≈ 3.26 µM) | 32 µg/mL (≈ 52.2 µM) | 0.25 µg/mL (≈ 0.408 µM) | 16 µg/mL (≈ 26.1 µM)
CCN(CC)Cc1ccc(OCC(=O)N2CCN(c3ccc(N4C[C@H](CNC(C)=O)OC4=O)cc3F)CC2)cc1 [Compound 8] | 8 µg/mL (≈ 14.4 µM) | 32 µg/mL (≈ 57.6 µM) | 32 µg/mL (≈ 57.6 µM) | > 64 µg/mL | 2 µg/mL (≈ 3.6 µM) | 32 µg/mL (≈ 57.6 µM) | 32 µg/mL (≈ 57.6 µM) | > 64 µg/mL | 2 µg/mL (≈ 3.6 µM) | > 64 µg/mL
CN1CCN(Cc2ccc(OCC(=O)N3CCN(c4ccc(N5C[C@H](CNC(=S)C6CC6)OC5=O)cc4F)CC3)cc2)CC1 [Compound 23] | 8 µg/mL (≈ 12.8 µM) | – | 16 µg/mL (≈ 25.6 µM) | > 64 µg/mL | 0.5 µg/mL (≈ 0.8 µM) | 8 µg/mL (≈ 12.8 µM) | 32 µg/mL (≈ 51.2 µM) | 64 µg/mL (≈ 102 µM) | 0.5 µg/mL (≈ 0.8 µM) | 64 µg/mL (≈ 102 µM)
